Source: patent US5147876A, “2,6-di,2,4,6-, 2,5,6-tri and 2,4,5,6-tetra-substituted pyrimidines, their pharmaceutically acceptable salts, pharmaceutical compositions containing same and their use in the treatment of neurological diseases” (Mitsui Petrochemical Industries, Ltd., priority 1988, dated 1992)

Tests used:
[1] = system: neuro-2a (mouse neuroblastoma cells); test: Action on neuro-2a: proportion of cells containing outgrown neurites; assay type: cell-based; conditions: mean ± S.D.
How it was run: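 Read-out is the percentage of neurite-bearing cells (neurite ≥2× long cell diameter), counted microscopically over more than 200 cells per well. Before fixation and staining, neuro-2a cells (1,000/well, DMEM + 10% FCS) were cultured for one day at 37 °C; up to six compound concentrations, three runs each.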

[2] = system: NS-20Y (mouse neuroblastoma cells); test: Activity on NS-20Y cells: appearance of neurites; assay type: cell-based
How it was run: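 Mouse neuroblastoma NS-20Y cells were grown in polyornithine-coated dishes in DMEM with 10 % FCS, 100 units/ml penicillin G sodium and 100 micrograms/ml streptomycin sulfate, at 37° C under 5 % carbon dioxide, and exposed to compound. Cells were fixed with 4 % glutaraldehyde, stained with 0.05 % methylene blue, and the fraction bearing neurites at least twice the cell's long diameter was counted microscopically.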

[3] = system: rats with crushed sciatic nerves; test: Twitch tension of hind paw in rats with crushed sciatic nerves; assay type: in vivo, rat (male Wistar)
Description: (§1) The therapeutic effect of the compound of the invention was tested on rats having crushed sciatic nerves as a model of peripheral nervous disorder using (1) a change in the action of the hind paw with the crushed sciatic nerves and (2) a change in the weight of the muscle as an index of the course of degeneration and regeneration of peripheral nerves.
(§2) In the experiment, male Wistar rats (6 weeks old), seven per group, were used. The sciatic nerves were crushed by a method similar to the method of Yamatsu et al. (see Kiyomi Yamatsu, Takenori Kaneko, Akifumi Kitahara and Isao Ohkawa, Journal of Japanese Pharmacological Society, 72, 259-268 (1976) and the method of Hasegawa et al. (see Kazuo Hasegawa, Naoji Mikuni and Yutaka Sakai, Journal of Japanese Pharmacological Society, 74, 721-734 (1978). Specifically, under anesthesia with pentobarbital (40 mg/kg, i.p.), the left side sciatic nerve was exposed at the femur, and a specific site of the exposed sciatic nerve was crushed for 30 seconds by using a hemostat. After the crushing, the operation site was immediately sutured. Thereafter, vincristine known to retard the regeneration of the peripheral nerve was intraperitoneally administered in a dose of 100 g/kg once a week.
(§3) Compounds of the invention were selected as test drugs, and administered intraperitoneally once a day from the day of crushing to 30th day from then. To a control group, only 0.9 % saline was administered.
Twitch tension, which is a transient tension incident to contraction of the dominated muscles that occurs by electrical stimulation or the like of motor nerves, as is the case with the interdigit distance to be described, is considered to reflect functional changes of the nerves and muscles.
[…] J. Neurosci. Methods, 19, 259 (1987)]. Specifically, the hair on the hind paw of rats was shaven, and coated with Cardiocream (a product of Nihon Denko K.K.). Then, to the skin of the hind paw, electrodes with an alligator were attached The cathode was attached to the rear portion of the trochiter, and the […], to a site 1 cm rearwardly of the […] electrode and 1 cm toward its back. The rat was fixed on its back, and the hind paw to be measured was fixed perpendicularly. A silk yarn, about 20 cm long, was connected at one end to the third efferent toe joint of the hind paw to be measured and at the other end to a tension transducer. Isotonic contractions of the third muscle digitus flexus were recorded on a polygraph. Electrical stimulation was effected at a voltage of 100V for a continuous duration of 1 msec. with rectangular waves at a frequency of 2 Hz. The static tension was 15 to 30 g, and 10 stimulations were repeated 3 times with intervals of 15 seconds. The contracting force was expressed as tension (g). From the measured values of both paws, the recovery ratio (%, left/right) of the contracting force of the paw with crushed nerves was calculated.

[4] = system: rats with crushed sciatic nerves; test: Weight of muscle extensor digitorum longus in rats with crushed sciatic nerves; assay type: in vivo, rat (male Wistar); conditions: thirty days after operation, mean ± S.D.
Description: as §1, §2, §3
It is known that removal of a nerve or its disorder causes atorphy of the muscle which is under its control, and the atrophy is gradually cured by re-control by the nerve. For this reason, a change in the weight of the muscle, which is quantitative, was selected as an index. Thirty days after the operation, the muscles extensor digitorum longus of both hind paws which are muscles under the control of sciatic nerves were extracted under anesthesia, and their weights were measured. The ratio of the weight of the muscle extensor digitorum longus on the crushed side to that of normal side was calculated and expressed in percentage (%).

[5] = system: rats with lesioned nigral dopaminergic nerve cells; test: Motor imbalance (methamphetamine-induced rotation) after 6-hydroxydopamine lesion and transplantation of fetal cerebral cells; assay type: in vivo, rat (female Wistar)
Description: Nigral dopaminergic nerve cells at the left side of the brain of 4-week old female Wistar rats (body weight 100 g) were lesioned by injecting a very small quantity of 6-hydroxydopamine. […] Upon administration of methamphethamine (5 mg/kg, i.p.) to the rats having the lesioned nigral dopaminergic nerve cells, they began rotational movement toward the lesioned side.
After two weeks from the destruction by the administration of the drug, portions of the […] containing dopamine cells (i.e., substantial nigra and the tagmentum at the abdomen side) were cut from the brain of a fetal rat of 14 to 17 days of age, cut finely, and treated with trypsin. Then, the extracted tissues were incubated at 37° C. for 30 minutes, and the tissues were subjected to pipetting to form a suspension. Five microliters of the suspension was transplanted each into two sites of the caudate nucleus of the lesioned side (10 microliters in total, about 10^5 cells)
Compound No. 168 of the invention was administered in a dose of 156 mg/kg (i.p.) for 4 days from the day of transplantation, then with a suspension of 7 days, for 10 days in a dose of 50 mg/kg (i.p.) from the 11th day. Compound No. 296 was administered in a dose of 153 mg/kg, and then 50 mg/kg, in accordance with the same schedule.
Compound No. 3144 was also administered in accordance with the same schedule in a dose of 135 mg/kg, and then 45 mg/kg.
The rotational movements induced by administration of methamphetamine were examined 2 weeks and 1 week before, and 2 (or 3), 4, 6 and 8 weeks after, the transplantation and the administration of the drug. The number of rotational movements for the first one minute was counted at intervals of 10 minutes after the administration of methamphetamine, and the total number of rotational movements counted six times was averaged to find a mean number of the rotational movements.

[6] = Acute toxicity on mice; assay type: in vivo; conditions: mouse, in vivo, ip, 24 hours after administration; read-out: Estimated LD50
Description: The acute toxicity of the compounds of the invention was examined by the following method.
Male ddy-strain 5-week old mice, 4-6- per group, were used as experimental animals. Each of the compounds was intraperitoneally (i.p.), and the toxicity of the compound was assessed 24 hours after the administration.

[7] = system: rats having crushed sciatic nerves; test: Interdigit distance in rats with crushed sciatic nerves; assay type: in vivo, rat (male Wistar); conditions: 30 mg/kg, i.p.
Description: as §1
as §2, with “Thereafter, vincristine known to retard the regeneration of the peripheral nerve was intraperitoneally administered in a dose of 100 g/kg once a week.” left out
By a method similar to the method of Hasegawa [Hasegawa, K., Experientia, 34, 750-751 (1978)], the distance between the first and fifth digits of the hind paw was measured.
The ratio of the measured distance to the interdigit distance in a normal hind paw was calculated and expressed in percentage (%). […]

[8] = Table 14, 30 mg/kg i.p. once a day, 30 days, mean ± S.D., 168: *3 p < 0.01, 296: *2 p < 0.05
[9] = 3 W after transplantation, i.p. 168: 156 then 50, 296: 153 then 50, 3144: 135 then 45 mg/kg
[10] = 4 W after transplantation, i.p. 168: 156 then 50, 296: 153 then 50, 3144: 135 then 45 mg/kg
[11] = 6 W after transplantation, i.p. 168: 156 then 50, 296: 153 then 50, 3144: 135 then 45 mg/kg
[12] = 8 W after transplantation, i.p. 168: 156 then 50, 296: 153 then 50, 3144: 135 then 45 mg/kg
[13] = -1 W (before transplantation and drug)

| Compound | Number of cells having neurites with a length at least two times the diameter of each cell/total number of cells ([1]; 0.1 mM) [%] | Number of cells having neurites with a length at least two times the diameter of each cell/total number of cells ([1]; 0.3 mM) [%] | Number of cells in which neurites appeared/total number of cells ([2]; 24 hours, 0.1 mM) | Number of cells in which neurites appeared/total number of cells ([2]; 48 hours, 0.1 mM) | Twitch tension left/right [3, 8] [%] | Weight of muscle extensor digitorum longus left/right ([4]; 30 mg/kg, *2 p < 0.05) [%] | mean number of the rotational movements [5, 9] | mean number of the rotational movements [5, 10] | mean number of the rotational movements [5, 11] | mean number of the rotational movements [5, 12] | mean number of the rotational movements [5, 13] | LD50 at 24 h [6] [mg/kg] | further results |
| --- | --- | --- | --- | --- | --- | --- | --- | --- | --- | --- | --- | --- | --- |
| CN(C(=O)c1ccccc1)c1ccnc(N2CCC(c3ccccc3)CC2)n1 [Compound 168, 4-(N-methylbenzamino)-2-(4-phenylpiperidino)pyrimidine p-toluenesulfonate] | 35.7 ± 0.8 | 14.6 ± 4.3 | 26/50 | 20/55 | 51.2 ± 13.6 | 59.4 ± 11.8 | 9.1 ± 5.6 | 4.5 ± 4.5 | 1.5 ± 3.9 | 0.8 ± 2.1 | 13.3 ± 7.8 | > 1000 | Number of cells having neurites with a length at least two times the diameter of each cell/total number of cells ([1]; 0.05 mM): 23.8 ± 2%; Number of cells having neurites with a length at least two times the diameter of each cell/total number of cells ([1]; 0.2 mM): 24.4 ± 6.9%; Number of cells in which neurites appeared/total number of cells ([2]; 24 hours, 0.25 mM): 12/50; Twitch tension left/right ([3]; Table 14, 10 mg/kg i.p. once a day, 30 days, mean ± S.D., *2 p < 0.05): 48.4 ± 11.8%; Weight of muscle extensor digitorum longus left/right ([4]; 10 mg/kg): 52.1 ± 5.4% |
| CN(C(=O)c1ccco1)c1ccnc(N2CCC(c3ccccc3)CC2)n1 [Compound 296] | 44.4 ± 5.5 | 22.4 ± 3.0 | 9/49 | 2/50 | 48.1 ± 9.4 | 56.9 ± 9.7 | 8.4 ± 5.0 | 3.1 ± 3.4 | 0.9 ± 2.3 | 1.0 ± 1.5 | 13.2 ± 4.1 | > 1000 | – |
| CN1C(=O)Cc2cnc(N3CCN(C(c4ccccc4)c4ccc(Cl)cc4)CC3)nc21 (stereo not shown) [Compound 3144] | 34.1 ± 3.8 | 44.5 ± 9.7 | – | – | – | – | 7.7 ± 4.7 | 4.0 ± 5.6 | 0.2 ± 2.2 | 1.1 ± 4.1 | 14.1 ± 4.7 | 500 to 1000 | Number of cells having neurites with a length at least two times the diameter of each cell/total number of cells ([1]; 0.03 mM): 20.8 ± 4.7%; Number of cells having neurites with a length at least two times the diameter of each cell/total number of cells ([1]; 1 mM): 32.2 ± 1.6%; Twitch tension left/right ([3]; Table 15, 30 mg/kg, 18th days): 54.5 ± 17.1%; Twitch tension left/right ([3]; Table 15, 30 mg/kg, 23rd days): 57.9 ± 15.5%; Recovery of the interdigit distance ([7]; 18th days): 72.7 ± 14.0%; Recovery of the interdigit distance ([7]; 23rd days): 83.8 ± 12.2% |
